How the values were obtained:
Assay type in all cases: cell-based
518A2 cells = assay: MTT cell viability assay, 518A2; conditions: Homo sapiens; 518A2, MTT, 72 h
Procedure: (§1) A375, MRC-5, and HaCaT cell lines were obtained from the American Type Culture Collection (ATCC). 518A2 cell line was kindly provided by Dr. […]ć. All cell lines were cultured in RPMI 1640 medium supplemented with 2 g/L glucose, 10% fetal bovine serum (FBS), and antibiotics. […] Cell viability was assessed using the MTT assay (Sigma Aldrich, #M5655). […] After 72 h of incubation, absorbance was measured at 570 nm using a Multiskan SkyHigh microplate reader (Thermo Fisher Scientific, Helsinki, Finland). Values were corrected by subtracting the absorbance measured in wells containing cell-free medium with tested compounds.

A375R cells [1] = assay: MTT cell viability assay, vemurafenib-resistant A375R; conditions: for IC50: A375R, MTT, 72 h
Procedure: as §1

A375R cells [2] = assay: Cell cycle distribution (PI, flow cytometry), A375R; conditions: 25 µM, 72 h
Procedure: (§2) A375 and A375R cells were seeded in 6-well plates at a density of 150,000 cells per well. On the following day, the cells were treated with 25 µM concentrations of compounds 1, 3, and 8, as well as telmisartan. After 72 h of incubation, the cells were harvested using trypsin, washed with phosphate-buffered saline (PBS), fixed in ethanol, and stored at −20 °C until analysis. Ethanol-fixed cells were treated with RNase A (1 mg/mL) and stained with propidium iodide (PI; 400 µg/mL). A total of 20,000 events were recorded per sample. Quantitative analysis of the cell cycle phase distribution was performed by flow cytometry using a FACSCalibur flow cytometer (Becton Dickinson, San Jose, CA, USA) and BD CellQuest Pro Version 5.2.1 software. Experiment was performed three times. Cells under treatment were compared to controls for each cell phase separately with one-way ANOVA and Dunnett’s multiple comparison tests. p < 0.05 was considered statistically significant.

A375 cells [3] = assay: Cell cycle distribution (PI, flow cytometry), A375; conditions: A375, 25 µM, 72 h
Procedure: as §2

AT1R = biological target: T1, AT1R (Homo sapiens, UniProt P30556); assay: Angiotensin II-induced Ca2+ release, Fluo-4 AM live-cell imaging; conditions: 2 min; for Effect on AngII-induced Ca2+ increase (combination treatment): A375, 25 μM compound + 1 μM AngII; for Effect of compound alone on baseline Ca2+ signaling: A375, compound alone
T1 construct: endogenous in cells; host or cells: A375 melanoma cells (ATCC)
T1 sequence (P30556 1-359): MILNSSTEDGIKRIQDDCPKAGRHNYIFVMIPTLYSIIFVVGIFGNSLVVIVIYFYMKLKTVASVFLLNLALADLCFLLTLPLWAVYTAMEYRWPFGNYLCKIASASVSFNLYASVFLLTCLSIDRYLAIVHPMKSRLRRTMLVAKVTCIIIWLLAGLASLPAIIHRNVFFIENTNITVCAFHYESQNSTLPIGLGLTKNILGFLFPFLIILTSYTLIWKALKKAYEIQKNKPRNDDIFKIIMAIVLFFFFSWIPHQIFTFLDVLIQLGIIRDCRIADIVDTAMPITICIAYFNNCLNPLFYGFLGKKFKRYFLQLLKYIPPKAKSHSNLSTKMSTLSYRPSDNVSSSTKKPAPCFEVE
Procedure: Fluo-4 AM calcium indicator dye (F14201, Molecular Probes, Eugene, OR, USA) was used to observe Ca^2+ dynamics upon treatment, per manufacturer’s instructions. Briefly, 5000 A375 cells/well were seeded in 96-well optical bottom black cell culture plates (165305, Thermo Scientific). Fluo-4 AM stock solution in DMSO was mixed with equal volume of 20% Pluronic F-127 to assist in dispersion of AM esters before dilution into the loading medium. Twenty-four hours after seeding medium was removed, and cells were washed with HBBS without calcium and magnesium. Cells were stained in HBSS medium with 1.25 μM Fluo-4-AM for 30 min at 37 °C. After incubation, cells were washed and incubated in complete medium (10%FBS RPMI) to allow de-esterification for 30 min and then treated with 1 μM human Angiotensin II (A9525, Sigma Aldrich), 50 μM telmisartan, compounds 1, 3, and 8, or the combinations. Images were taken before addition of the treatment (0 min) and after 2 min of treatment on Zeiss PALM MicroBeam Axio Observer Z1 microscope (Carl Zeiss MicroImaging GmbH, Oberkochen, Germany) with Zeiss LD Plan-Neofluar 20×/0.4 Korr, ∞/0–1.5 mm lens and AxioVision SE64 Rel.4.9.1 software. Experiment was repeated three times. Integrated density of Fluo-4 fluorescence at 2 min of exposure to treatment was calculated with Image J, and normalized to the baseline fluorescence at time 0, in at least two random fields for each condition. Conditions were compared with one-way ANOVA and Tukey’s multiple comparisons test. p < 0.05 was considered statistically significant.

A375 cells [4] = assay: Mitochondrial morphology staining (MitoTracker Green FM); conditions: A375, 25 μM, 24 h
Procedure: For imaging of the mitochondrial morphology in live cells, A375 cells seeded in 96-well optical bottom plates, as above, were treated for 24 h with 25 μM telmisartan, compound 1, 3, or 8. Treatment was washed away, and cells were stained with 500 nM MitoTracker Green FM (#9074, Cell signaling Technology, Danvers, MA, USA) in RPMI without serum for 30 min at 37 °C. Cells were imaged on Zeiss PALM MicroBeam Axio Observer Z1 microscope (Carl Zeiss MicroImaging GmbH, Oberkochen, Germany) with Zeiss LD Plan-Neofluar 20×/0.4 Korr, ∞/0–1.5 mm lens and AxioVision software. Mitochondrial shape was quantified in images from two biological experimental repeats, in three random fields for each condition, using Image J Analyze Particles function. Images were first processed to 8-bit binary, and circularity and aspect ratio (major axis/minor axis) were calculated and plotted with Prism 9 (GraphPad Software, LLC, Boston, MA, USA). Treatments were compared with untreated control using one-way ANOVA and Dunnett’s multiple comparisons test. p < 0.05 was considered statistically significant.

[5] = test system: MRC-5 (fetal fibroblasts); assay: MTT cell viability assay, MRC-5; conditions: Homo sapiens, MRC5; MRC-5, MTT, 72 h
Procedure: as §1

A375 cells [6] = assay: Cellular uptake and subcellular distribution by LC-MS/MS; conditions: A375, 25 μM, 24 h; for Compound accumulation normalized to telmisartan, Chromatin Bound: chromatin-bound nuclear fraction; for Compound accumulation normalized to telmisartan, Cytoplasm: cytoplasmic fraction; for Compound accumulation normalized to telmisartan, Cytoskeleton: cytoskeletal fraction; for Compound cell accumulation normalized to telmisartan, Whole Lysate: μmol compound per μg cell protein normalized to telmisartan
Procedure: Cells were then trypsinized, washed with PBS and pelleted. For whole cell lysates, cell pellet was dissolved in RIPA buffer on ice. Fractions and whole cell lysates were stored at -80 °C until use. Protein concentration of lysates was determined with Pierce BCA Protein assay kit (Thermo Fisher #23225), and cell accumulation was calculated as μmol of compound per μg of cell protein and normalized to telmisartan. Concentrations of telmisartan and its derivatives were determined using liquid chromatography-tandem mass spectrometry (LC-MS/MS) method in positive HESI mode. The analysis was performed on UHPLC chromatograph […] (Thermo Fisher Scientific Inc., Madison, WI, USA), coupled to a triple quadrupole mass spectrometer TSQ Quantum Access MAX (Thermo Fisher Scientific Inc., Madison, WI, USA) with heated electrospray ionization (HESI) interface. The column was Zorbax Extend C18 (150 mm × 4.6 mm, 5 μm particle size). […] Experiment was repeated twice.

| SMILES | IC50 (518A2 cells) | IC50 (A375R cells [1]) | Cell cycle distribution (A375R cells [2]) | Cell cycle distribution (A375 cells [3]) | Effect on AngII-induced Ca2+ increase (combination treatment) (AT1R) | Effect of compound alone on baseline Ca2+ signaling (AT1R) | Mitochondrial network morphology (A375 cells [4]) | IC50 [5] | Compound accumulation normalized to telmisartan, Chromatin Bound (A375 cells [6]) | Compound accumulation normalized to telmisartan, Cytoplasm (A375 cells [6]) | Compound accumulation normalized to telmisartan, Cytoskeleton (A375 cells [6]) | Compound accumulation normalized to telmisartan, Membrane (A375 cells [6]; membrane fraction) | Compound cell accumulation normalized to telmisartan, Whole Lysate (A375 cells [6]) | Selectivity (A375R cells [1]; A375R versus normal cell lines (HaCaT, MRC-5), from IC50 values) | Accumulation in the membrane fraction (A375 cells [6]; membrane fraction) |
| --- | --- | --- | --- | --- | --- | --- | --- | --- | --- | --- | --- | --- | --- | --- | --- |
| CCCc1nc2c(C)cc(-c3nc4ccccc4n3C)cc2n1Cc1ccc(-c2ccccc2C(=O)NC(Cc2ccc(O)cc2)C(=O)O)cc1 (stereo not drawn) [compound 3, 2-{[4′-(1,7′-dimethyl-2′-propyl-1H-[2,5′]bibenzoimidazolyl-3′-ylmethyl)-biphenyl-2-carbonyl]-amino}-3-(4-hydroxy-phenyl)-propionic acid] | 31 ± 2.38 µM | 21.1 ± 6.31 µM | cell cycle profile comparable to that of the untreated control cells | increased accumulation of cells in the subG1 phase, albeit not statistically significant | did not prevent AngII-induced Ca^2+ increase | no significant changes in the baseline Ca^2+ signaling | disrupted the mitochondrial network to a greater extent than telmisartan | 50.74 ± 0.28 µM | 0.52 | 3.64 | 0.69 | 4.62 | 4.57 | – | – |
| CCCc1nc2c(C)cc(-c3nc4ccccc4n3C)cc2n1Cc1ccc(-c2ccccc2C(=O)NC(Cc2ccccc2)C(=O)O)cc1 (stereo not drawn) [compound 8, 2-{[4′-(1,7′-dimethyl-2′-propyl-1H-[2,5′]bibenzoimidazolyl-3′-ylmethyl)-biphenyl-2-carbonyl]-amino}-3-phenyl-propionic acid] | 28.4 ± 2.66 µM | 8.84 ± 1.24 µM | cell accumulation in the G0/G1 phase | increased accumulation of cells in the subG1 phase, albeit not statistically significant | did not prevent AngII-induced Ca^2+ increase | no significant changes in the baseline Ca^2+ signaling | dramatic fission and clumping of mitochondria | 31.5 ± 5.87 µM | 11.90 | 11.17 | 7.44 | – | 4.41 | > 3.50 | 26.814 µmol/L |

Reference: article PMC12787000 (Molecules, 2025)
